From US9856508B2, “Chemiluminescent compositions, methods, assays and kits for oxidative enzymes” (LIFE TECHNOLOGIES CORPORATION, priority 2010, dated 2018) come the findings set out here.

What all share (assay): Isozyme specificity of 1,2-dioxetane substrates, rhCYP microsomes, 2-step endpoint assay
One series addresses T1, CYP2C19 (Homo sapiens, UniProt P33261).
T1 construct: purchased BD/Gentest (or other vendor) 456259; host or cells: recombinant human CYP microsomes
The format is biochemical. The procedure: (§1) Assays were performed using the same conditions (25° C., 5 nM rhCyp, 10 μM substrate, 25 min endpoint assay, with isozyme-specific buffers, Luminoscan plate reader) but on different days.
(§2) Cytochrome P450 assays have been developed to determine the isozyme specificity of novel 1,2-dioxetane chemiluminescent CYP450 substrates. In these assays, a 1,2-dioxetane substrate that has been determined to be a good substrate for a specific CYP450 isozyme is screened against individual recombinant (human or other) CYP450 isozymes. The protocol follows the 2-Step Endpoint assay format described above (Example 2, Format 1). The assay can be performed using either assay conditions that mimic an inhibition assay (Example 1) using substrate concentrations near the known or predicted Km of the substrate with its known isozyme, or at concentrations designed for more sensitive enzyme detection which is generally above the Km. Assays can be performed in several different ways depending on the desired information. If one is seeking to find out if the dioxetane is a substrate for different CYP450 isozymes at the specific isozyme's preferred assay conditions, the assays should be performed using the buffer and assay conditions preferred by each specific isozyme (Format 1). If one wants to find out if the dioxetane substrate is selective for a given CYP450 isozyme at that isozyme's preferred assay conditions, the assay should be performed using only the assay conditions of the matched isozyme (Format 2). Assays use recombinant human (rh) CYP450 isozymes (final [5 or 10 nM]), NADPH Regeneration System (final [1×]) and Potassium Phosphate Buffer prepared in a 2× Master Mix. 50 μL of the Master Mix is added to the wells of a 96-well plate. 40 μL of water is added the rows of the plate containing the Master Mix. The reaction is started by addition of 10 μL of a 10× NADP+ (nicotinamide adenine dinucleotide phosphate) and 1,2-Dioxetane Substrate (final [1 to 10 μM]) mix to assay wells. The assays are incubated for either 25 min (Format 1) or at the specific assay time (see Example 48, Format 2).
(§3) • (See FIGS. 3A, 4A, and 5A.) Materials: • rhCytochrome P450 Isozymes: • CYP3A4 (BD/Gentest, Cat #456202) (or other vendor) • CYP2C19 (BD/Gentest, Cat #456259) (or other vendor) • CYP2C9 (BD/Gentest, Cat #456258) (or other vendor) • CYP2D6 (BD/Gentest, Cat #456217) (or other vendor) • CYP1A2 (BD/Gentest, Cat #456203) (or other vendor) • Or Other CYP450 recombinant isozymes • 200 mM Potassium Phosphate Buffer, pH 7.4 • 100 mM Potassium Phosphate Buffer, pH 7.4 • 100× NADP+ • (10 mM NADP+ in 100 mM Potassium phosphate buffer, pH 7.4) • 100× Regeneration System • (333 mM Glucose-6-phosphate, 30 Units/mL Glucose-6-phosphate dehydrogenase in 100 mM Potassium Phosphate Buffer, pH 7.4) • 1,2-Dioxetane Substrates (in 100% Acetonitrile, water, or acetonitrile/water mixture) • 96 well white microplate • Accelerator II Protocol Overview: (See, FIG. 10). Assay Set-Up:
(§4) Contains: • NADP+: 100× stock is 10 mM NADP+ in 100 mM Potassium Phosphate Buffer, pH 7.4 • 100 μM Known 1,2-Dioxetane Substrate Assay Procedure: • 1. Thaw all reagents on ice, except substrates: warm-up to RT under aluminum foil (light sensitive) • 2. Prepare 2× Master Mixes in 2× reaction buffer (keep on ice).
(§5) • 3. Add 50 μL of the specific 2× Master Mix to the desired wells • 4. Add 40 μL of sterile water (H2O) to each well of the plate • 5. Cover plate with plate sealer and let the assay wells equilibrate to 25° C. or room temperature for a few minutes while you prepare the 10×NADP+/Substrate Mixture. • 6. Prepare 10× NADP+/Substrate Mixture immediately before use (light sensitive!)
(§6) • 100× NADP+: 10× (1× final) • H2O: to final volume. • Add substrate by trituration and vortex to allow for maximum substrate solubility in the aqueous mixture. • *The final organic solvent concentration in the assay should be less than 0.1% and preferably much less. • 7. […]

A further series relates to other CYP isozyme. The format is biochemical, human. The following applies: FIG. 5A, 25° C., 25 min, 10 μM BZT-Me, 5 nM rhCYP450. How it is done: FIG. 5A and FIG. 5B compare CYP450 isozyme specificity of 1,2-dioxetane substrate BZT-Me in recombinant human microsomes (rhCYPs) and human liver microsomes. FIG. 5A is a graphic representation of isozyme specificity of BZT-Me in rhCYP microsomes. Assays were performed ate 25° C. for 25 min using 10 μM BZT-Me, 5 nM rhCYP450, and isozyme-preferred potassium phosphate buffer, pH 7.4. […] FIG. 5B is a graphic representation of isozyme specificity of BZT-Me in pooled human liver microsomes (HLMs). Assays were performed for 25 min at 25° C. using 20 μM BZT-Me and 50 mM potassium phosphate buffer, pH 7.4. Positive (2C19) and negative (3A4, 2D6, and microsome only) controls were performed using 5 nM rhCYP450 microsomes. Pooled HLMs or low 2C19 HLMs were assayed at 0.5, 0.25, 0.125, or 0.0625 mg/ml. Assays were performed with or without 2 μM ketoconazole to indicate CYP3A family specificity or 0.5 μM miconozole. All assays were performed using the 2-step assay method (Example 48, Format A).
Cytochrome P450 assays have been developed to determine the isozyme specificity of novel 1,2-dioxetane chemiluminescent CYP450 substrates. In these assays, a 1,2-dioxetane substrate that has been determined to be a good substrate for a specific CYP450 isozyme is screened against individual recombinant (human or other) CYP450 isozymes. […]

The next series relates to 2C19 and 2C18 isozymes. The series is classed as biochemical, human. The following applies: dioxetane as enzyme substrate. The procedure:
as §1
Cytochrome P450 assays have been developed to determine the isozyme specificity of novel 1,2-dioxetane chemiluminescent CYP450 substrates. In these assays, a 1,2-dioxetane substrate that has been determined to be a good substrate for a specific CYP450 isozyme is screened against individual recombinant (human or other) CYP450 isozymes. The protocol follows the 2-Step Endpoint assay format described above (Example 2, Format 1). The assay can be performed using either assay conditions that mimic an inhibition assay (Example 1) using substrate concentrations near the known or predicted Km of the substrate with its known isozyme, or at concentrations designed for more sensitive enzyme detection which is generally above the Km. Assays can be performed in several different ways depending on the desired information. If one is seeking to find out if the dioxetane is a substrate for different CYP450 isozymes at the specific isozyme's preferred assay conditions, the assays should be performed using the buffer and assay conditions preferred by each specific isozyme (Format 1). If one wants to find out if the dioxetane substrate is selective for a given CYP450 isozyme at that isozyme's preferred assay conditions, the assay should be performed using only the assay conditions of the matched isozyme (Format 2). Assays use recombinant human (rh) CYP450 isozymes (final [5 or 10 nM]), NADPH Regeneration System (final [1×]) and Potassium Phosphate Buffer prepared in a 2× Master Mix. 50 μL of the Master Mix is added to the wells of a 96-well plate. 40 μL of water is added the rows of the plate containing the Master Mix. The reaction is started by addition of 10 μL of a 10× NADP+ (nicotinamide adenine dinucleotide phosphate) and 1,2-Dioxetane Substrate (final [1 to 10 μM]) mix to assay wells. The assays are incubated for either 25 min (Format 1) or at the specific assay time (see Example 48, Format 2). […]

A further series concerns CYP3A family isozymes. The format is biochemical, human. The settings on record: dioxetane as enzyme substrate. How it is done: as §1, §2, §3, §4, §5, §6
In a further series the target is T2, CYP2C8 (Homo sapiens, UniProt P10632).
T2 construct: host or cells: recombinant human CYP microsomes
T2 sequence (P10632 1-490): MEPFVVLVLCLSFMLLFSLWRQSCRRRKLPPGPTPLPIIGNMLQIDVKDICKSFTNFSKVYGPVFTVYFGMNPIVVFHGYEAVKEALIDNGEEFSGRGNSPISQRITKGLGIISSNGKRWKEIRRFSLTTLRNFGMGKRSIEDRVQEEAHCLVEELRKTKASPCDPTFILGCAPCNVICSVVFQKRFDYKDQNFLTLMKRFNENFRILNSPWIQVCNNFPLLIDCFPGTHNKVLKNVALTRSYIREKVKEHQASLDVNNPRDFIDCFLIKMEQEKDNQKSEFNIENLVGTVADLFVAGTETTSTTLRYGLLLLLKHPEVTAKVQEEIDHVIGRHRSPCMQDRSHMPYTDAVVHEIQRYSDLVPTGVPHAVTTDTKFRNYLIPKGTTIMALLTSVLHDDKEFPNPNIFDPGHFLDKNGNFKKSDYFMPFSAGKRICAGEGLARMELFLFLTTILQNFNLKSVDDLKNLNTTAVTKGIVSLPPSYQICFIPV
The format is biochemical. The following applies: dioxetane as enzyme substrate. How it is done:
as §1, §2, §3, §4, §5, §6

T1 sequence (P33261 whole entry): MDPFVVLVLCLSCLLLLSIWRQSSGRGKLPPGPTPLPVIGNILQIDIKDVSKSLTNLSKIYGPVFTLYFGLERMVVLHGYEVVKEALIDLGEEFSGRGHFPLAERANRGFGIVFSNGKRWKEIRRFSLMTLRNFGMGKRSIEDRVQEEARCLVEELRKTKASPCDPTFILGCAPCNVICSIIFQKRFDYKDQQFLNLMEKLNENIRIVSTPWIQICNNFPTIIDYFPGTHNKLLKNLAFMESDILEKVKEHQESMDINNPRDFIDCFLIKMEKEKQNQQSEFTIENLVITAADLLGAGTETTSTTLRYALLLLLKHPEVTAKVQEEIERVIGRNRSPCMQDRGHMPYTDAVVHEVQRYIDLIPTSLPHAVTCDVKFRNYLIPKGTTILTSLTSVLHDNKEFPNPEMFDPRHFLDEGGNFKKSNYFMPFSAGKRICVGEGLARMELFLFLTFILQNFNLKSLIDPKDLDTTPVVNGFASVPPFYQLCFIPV

Regarding `COc1ccc2sc(C3(OC)OOC34C3CC5CC(C3)CC4C5)cc2c1` (stereo not shown) [BZT-Me], at CYP2C19 (FIG. 4A/5A, rhCYP microsomes, 25° C., 25 min, 10 μM substrate, 5 nM rhCYP450, isozyme-preferred potassium phosphate buffer, pH 7.4), the “specificity for the CYP2C19 isozyme” value is recorded as “strong specificity”. Also, in the series with other CYP isozyme, the “oxidation by other CYP isozyme” value was “also oxidized”. For the same molecule, in the series with 2C19 and 2C18 isozymes, the “specificity for 2C19 and 2C18 isozymes” value is “strong specificity”.
In the case of `COC1(c2ccc(Cl)c(OCc3ccccc3)c2)OOC12C1CC3CC2CC(Cl)(C3)C1` (stereo not shown) [CDP-Star-Bn], on CYP2C19 (dioxetane as enzyme substrate, CYP2C19 assay conditions), the “activity from CYP2C19 under CYP2C19 assay conditions” value is “significant activity”. In addition, the “specificity for the CYP3A family isozymes” value with CYP3A family isozymes was “strong specificity”.
`CCOc1cc(C2(OC)OOC23C2CC4CC3CC(Cl)(C4)C2)ccc1Cl` (stereo not shown) [CDP-Star-Et, CDP-Star-ET]: in the series on 2C19 and 2C18 isozymes, the “specificity for 2C19 and 2C18 isozymes” value was “strong specificity”.
The same measure, in the same setting: next, `COc1cc(C2(OC)OOC23C2CC4CC3CC(Cl)(C4)C2)ccc1Cl` (stereo not shown) [CDP-Star-Me]: “strong specificity”; `COc1ccc2sc(C3(OC)OOC34C3CC5CC(C3)CC4C5)cc2c1Cl` (stereo not shown) [Cl-BZT-Me]: “strong specificity”.
Regarding `CCOc1cccc(C2(OC)OOC23C2CC4CC3CC(OCC[N+](C)(CC)CC)(C4)C2)c1` (stereo not shown) [Q+-Amino-Ad-Ph-OEt, Q^+-Amino-Ad-Ph-OEt dxt], the “specificity for the CYP3A family isozymes” value in the series on CYP3A family isozymes is reported as “strong specificity”.
On to `CCOc1cccc(C2(OC)OOC23C2CC4CC3CC(OCCC(C(=O)[O-])C(=O)[O-])(C4)C2)c1.[Na+].[Na+]` (stereo not shown) [bis-CO2Na-Ad-Ph-OEt dxt], for which the “specificity for CYP2C8” value at CYP2C8 was “high specificity”.
